Assay results taken from patent US9670162B2, “Mitochondrial aldehyde dehyrogenase-2 modulators and methods of use thereof” (The Board of Trustees of the Leland Stanford Junior …, priority 2013, dated 2017).
pIC50: −log10 of the molar value.

Experiments:
[1] = Plasma stability, human; assay type: in vitro ADME
Procedure: (§1) In vitro ADMET of compounds of the present disclosure was carried out according to known methods in the art. Below are data for certain compounds of the present disclosure.

[2] = target: CYP2D6 (Homo sapiens, UniProt P10635); assay: Cyp inhibition 2D6; assay type: in vitro ADME
Procedure: as §1

[3] = tested on: mice treated with PO 5 g/kg of EtOH; assay: Mouse pharmacodynamics (PD) study after EtOH; assay type: in vivo
Procedure: Mice (male C57BL6 (8 to 9 weeks, 20-22 g)) were treated with PO […] of EtOH. Then PO 40 mg/kg or 60 mg/kg compound 161 were administered to the mice. […] FIG. 6 is a graph showing the behavior of mice at 120 min, 180 min, and 300 min. FIG. 7 is a graph showing the alcohol concentration (mg/dL) at 75 min and 180 min.
A PD study of IV administration of compound 161 was also carried out. The mice were treated with PO 5 g/kg of alcohol and were then treated with 10 mg/kg of compound 161 administered through IV. […] FIG. 8 is a graph showing the blood alcohol concentration (mg/dL) versus time (hr).

[4] = MLM stability T1/2; assay type: in vitro ADME; conditions: mouse, liver microsomes
Procedure: as §1

[5] = target: hERG channel (Homo sapiens, UniProt Q12809); assay: hERG channel patch-clamp; assay type: cell-based
[6] = target: T1, CYP1A2 (Homo sapiens, UniProt P05177); assay: Cyp inhibition 1A2; assay type: in vitro ADME; design: inhibition: dose or concentration left out as unconfirmed
T1 sequence (P05177 1-516): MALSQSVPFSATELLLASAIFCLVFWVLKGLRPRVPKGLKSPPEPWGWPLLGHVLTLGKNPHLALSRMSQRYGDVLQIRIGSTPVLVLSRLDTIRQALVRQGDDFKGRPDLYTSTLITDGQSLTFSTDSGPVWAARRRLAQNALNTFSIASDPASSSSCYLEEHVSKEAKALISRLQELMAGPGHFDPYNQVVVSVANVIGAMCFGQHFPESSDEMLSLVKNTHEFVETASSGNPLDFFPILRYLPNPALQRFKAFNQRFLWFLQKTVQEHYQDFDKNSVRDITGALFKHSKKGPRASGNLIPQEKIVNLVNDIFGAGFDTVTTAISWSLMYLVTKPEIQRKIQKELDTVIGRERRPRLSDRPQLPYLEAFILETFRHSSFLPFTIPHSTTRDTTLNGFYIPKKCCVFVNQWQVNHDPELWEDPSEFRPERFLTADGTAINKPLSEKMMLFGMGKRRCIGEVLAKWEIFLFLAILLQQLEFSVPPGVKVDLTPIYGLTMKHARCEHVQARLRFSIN
Procedure: as §1

[7] = tested on: ALDH-2 (or mutant) enzyme; assay: Rate of 4-HNE oxidation by ALDH-2; assay type: biochemical; conditions: 4-HNE substrate, O.D. 340 nm, 25° C.
Procedure: The effect of compound 161 on the rate of 4-HNE oxidation by ALDH-2 was carried out by methods known in the art. To each well of a 96-well flat bottom UV plate, the following reagents were sequentially added by pipetting:
50 μl of 100 mM sodium pyrophosphate decahydrate (NaPPi, pH 8.4)
25 μl of 10 mM nicotinamide adenine dinucleotide hydrate (NAD)
1 μl of 20 mM testing compound DMSO solution
The plate was then put on a shaker to mix the cocktails in wells. After 5 minutes of mixing, 1 ul of ALDH-2 (or mutant) enzyme was added to each well with the reagent cocktail. DMSO was used as blank control in the plate. The plate was again put on shaker for another 5 minutes of shaking to enhance bonding between testing compounds and the enzyme.
1 ul of 30 mM 4-HNE in water was then added to each of wells containing the above reaction mixture. After a short vigorous mixing, the UV plate was fed into a plate reader to measure kinetic optical density (O.D.) at wavelength 340 nm at 25° C. over 4 minutes. Each point of measurement was taken at a time interval of 40 seconds.

[8] = Caco-2 permeability; assay type: in vitro ADME; conditions: human
Procedure: as §1

[9] = Plasma stability, rat; assay type: in vitro ADME
Procedure: as §1

[10] = HLM stability T1/2; assay type: in vitro ADME; conditions: human, liver microsomes; read-out: metabolism (HLM, t1/2)
Procedure: as §1

[11] = NHPLM stability T1/2; assay type: in vitro ADME; conditions: monkey, liver microsomes
Procedure: as §1

[12] = target: CYP2C9 (Homo sapiens, UniProt P11712); assay: Cyp inhibition 2C9; assay type: in vitro ADME
Procedure: as §1

Sequence of CYP2D6 (P10635 whole entry): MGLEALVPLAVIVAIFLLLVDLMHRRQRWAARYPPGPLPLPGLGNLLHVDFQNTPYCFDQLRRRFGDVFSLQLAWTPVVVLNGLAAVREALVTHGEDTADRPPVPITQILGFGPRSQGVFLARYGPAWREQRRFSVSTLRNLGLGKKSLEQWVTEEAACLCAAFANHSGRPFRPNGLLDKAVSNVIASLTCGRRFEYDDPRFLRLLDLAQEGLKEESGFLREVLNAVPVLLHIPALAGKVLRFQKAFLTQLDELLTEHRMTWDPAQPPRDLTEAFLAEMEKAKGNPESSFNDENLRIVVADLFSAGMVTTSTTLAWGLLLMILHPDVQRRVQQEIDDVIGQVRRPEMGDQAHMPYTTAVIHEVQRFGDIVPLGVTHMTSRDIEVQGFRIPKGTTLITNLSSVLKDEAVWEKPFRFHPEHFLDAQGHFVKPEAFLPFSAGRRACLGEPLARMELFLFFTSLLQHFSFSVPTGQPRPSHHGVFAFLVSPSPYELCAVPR
Sequence of CYP2C9 (P11712 whole entry): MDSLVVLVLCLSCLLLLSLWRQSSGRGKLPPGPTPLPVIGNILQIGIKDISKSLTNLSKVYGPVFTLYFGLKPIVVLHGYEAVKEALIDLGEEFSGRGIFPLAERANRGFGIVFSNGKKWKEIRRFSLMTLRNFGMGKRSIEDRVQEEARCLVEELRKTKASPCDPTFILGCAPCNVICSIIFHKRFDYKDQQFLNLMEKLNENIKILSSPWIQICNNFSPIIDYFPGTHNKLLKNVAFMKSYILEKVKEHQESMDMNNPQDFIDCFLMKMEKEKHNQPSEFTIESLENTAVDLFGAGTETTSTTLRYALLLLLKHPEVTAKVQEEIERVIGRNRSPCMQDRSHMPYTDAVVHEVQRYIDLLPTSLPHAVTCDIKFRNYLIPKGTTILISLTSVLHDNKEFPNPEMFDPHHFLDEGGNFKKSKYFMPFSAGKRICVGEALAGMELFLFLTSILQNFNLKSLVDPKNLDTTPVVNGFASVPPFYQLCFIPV
Sequence of hERG channel (Q12809 whole entry): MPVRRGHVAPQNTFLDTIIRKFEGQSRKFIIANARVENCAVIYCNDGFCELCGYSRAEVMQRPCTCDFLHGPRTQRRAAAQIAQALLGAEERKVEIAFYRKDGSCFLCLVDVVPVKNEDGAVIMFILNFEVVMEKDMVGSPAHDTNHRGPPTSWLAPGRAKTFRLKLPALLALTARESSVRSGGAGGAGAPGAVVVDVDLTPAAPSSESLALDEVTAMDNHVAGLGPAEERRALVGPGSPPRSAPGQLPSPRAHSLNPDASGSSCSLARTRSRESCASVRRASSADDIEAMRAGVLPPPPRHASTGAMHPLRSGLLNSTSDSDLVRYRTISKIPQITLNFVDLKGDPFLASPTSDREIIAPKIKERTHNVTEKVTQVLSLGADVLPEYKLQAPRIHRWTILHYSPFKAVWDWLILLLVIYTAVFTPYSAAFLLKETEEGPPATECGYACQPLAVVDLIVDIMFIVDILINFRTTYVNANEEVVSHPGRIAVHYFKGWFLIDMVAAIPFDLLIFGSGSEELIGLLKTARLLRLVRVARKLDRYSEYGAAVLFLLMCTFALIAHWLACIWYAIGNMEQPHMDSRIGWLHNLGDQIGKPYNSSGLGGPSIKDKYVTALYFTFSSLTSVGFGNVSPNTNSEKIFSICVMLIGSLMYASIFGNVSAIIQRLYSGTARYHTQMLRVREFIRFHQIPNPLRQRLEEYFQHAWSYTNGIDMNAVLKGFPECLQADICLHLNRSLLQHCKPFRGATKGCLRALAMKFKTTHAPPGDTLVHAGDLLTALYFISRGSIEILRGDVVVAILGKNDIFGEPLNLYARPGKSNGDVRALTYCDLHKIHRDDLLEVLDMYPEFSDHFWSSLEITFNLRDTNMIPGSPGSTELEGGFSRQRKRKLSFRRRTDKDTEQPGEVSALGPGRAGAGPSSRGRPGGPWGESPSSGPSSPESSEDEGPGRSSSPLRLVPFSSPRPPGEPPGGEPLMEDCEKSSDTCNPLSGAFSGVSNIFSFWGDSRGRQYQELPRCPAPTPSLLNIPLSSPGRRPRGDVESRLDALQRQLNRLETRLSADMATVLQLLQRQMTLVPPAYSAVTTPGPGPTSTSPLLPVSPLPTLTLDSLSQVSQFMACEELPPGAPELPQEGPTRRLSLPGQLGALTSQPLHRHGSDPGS

For `COc1ccc(CNC(=O)c2c(Cl)ccnc2OCC2CC2)cc1F` [Compound 161], the “plasma stability (human, 5 h)” value ([1]; 5 h) was 100%, the Plasma stability Human ([1]; plasma) was 100% and the inhibition at 10 µM [2] was 6.4%. The blood alcohol levels ([3]; PO 5 g/kg EtOH, compound PO 40 mg/kg or 60 mg/kg) was “reduces blood alcohol levels”, the blood alcohol levels ([3]; PO 5 g/kg alcohol, compound 10 mg/kg IV) was “reduces blood alcohol levels” and the “PD response (behavior observation)” value ([3]; PO EtOH, then PO 40 mg/kg or 60 mg/kg) was “significant PD response”. The half-life [4] was 2.08 min, the pIC50 [5] was < 4.52 and the inhibition [6] was 35%. The inhibition at 10 µM ([6]; 10 μM) was 35.2%, the “rate of 4-HNE oxidation by ALDH-2” value [7] was “accelerate the rate of 4-HNE oxidation” and the Papp A→B ([8]; A-B, read-out: absorption (Caco-2, Papp, A-B)) was 15.7 ×10⁻⁶ cm/s. The Papp B→A ([8]; B-A) was 10.7 ×10⁻⁶ cm/s, the efflux ratio ([8]; ratio, read-out: Caco-2 Papp B-A/A-B) was 0.68 and the Plasma stability Rat [9] was 100%. The half-life [10] was 12.4 min, the half-life [11] was 2.54 min and the inhibition at 10 µM [12] was 5.7%.
